pKi: −log10 of the molar value. Counter-ions that a name gives are not always drawn.
What was measured:
[1] = target: T1, Arthrobacter ureafaciens neuraminidase (Paenarthrobacter ureafaciens, UniProt Q5W7Q2); test: colorimetric neuraminidase assay (sialoside hydrolysis), A. ureafaciens; type: biochemical; details: 37° C.; for rate of hydrolysis (time course): A. U. neuraminidase, 0.75 mM sialoside, 0-120 min, FIGS. 1 and 3 panel A; for Vmax: A. ureafaciens neuraminidase, sialoside as substrate, 20 min, Lineweaver-Burk
T1 sequence (Q5W7Q2 39-990): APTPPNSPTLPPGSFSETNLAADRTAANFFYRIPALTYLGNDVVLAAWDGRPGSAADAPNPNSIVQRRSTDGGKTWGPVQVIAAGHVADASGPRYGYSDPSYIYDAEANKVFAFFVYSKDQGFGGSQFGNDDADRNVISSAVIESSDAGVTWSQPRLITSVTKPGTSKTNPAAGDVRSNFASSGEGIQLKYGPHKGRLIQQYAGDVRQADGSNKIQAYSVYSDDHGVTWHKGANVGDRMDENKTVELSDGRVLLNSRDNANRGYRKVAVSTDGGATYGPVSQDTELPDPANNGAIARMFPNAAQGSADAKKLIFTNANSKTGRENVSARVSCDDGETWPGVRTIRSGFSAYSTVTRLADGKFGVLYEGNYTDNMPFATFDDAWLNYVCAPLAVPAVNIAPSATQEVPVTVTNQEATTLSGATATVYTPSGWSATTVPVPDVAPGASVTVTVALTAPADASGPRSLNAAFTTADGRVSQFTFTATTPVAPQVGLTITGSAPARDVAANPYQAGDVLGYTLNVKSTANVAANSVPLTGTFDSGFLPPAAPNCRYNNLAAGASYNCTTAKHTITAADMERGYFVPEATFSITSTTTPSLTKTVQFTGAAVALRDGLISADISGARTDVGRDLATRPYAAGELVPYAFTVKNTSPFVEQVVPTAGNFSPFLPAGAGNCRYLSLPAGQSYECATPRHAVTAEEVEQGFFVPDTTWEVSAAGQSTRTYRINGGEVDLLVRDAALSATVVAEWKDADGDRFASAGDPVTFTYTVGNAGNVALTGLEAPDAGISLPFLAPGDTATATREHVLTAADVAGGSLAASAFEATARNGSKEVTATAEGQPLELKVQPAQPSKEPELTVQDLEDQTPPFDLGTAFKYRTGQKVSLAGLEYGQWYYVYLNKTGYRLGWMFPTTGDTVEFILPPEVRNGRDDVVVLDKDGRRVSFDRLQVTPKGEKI

[2] = target: Vibrio cholerae neuraminidase (Vibrio cholerae serotype O1, UniProt P0C6E9); type: biochemical; details: for rate of hydrolysis (time course): 0.75 mM sialoside, 37° C., 0-120 min, FIGS. 1 and 3 panel C
Chain of Vibrio cholerae neuraminidase (P0C6E9 25-781): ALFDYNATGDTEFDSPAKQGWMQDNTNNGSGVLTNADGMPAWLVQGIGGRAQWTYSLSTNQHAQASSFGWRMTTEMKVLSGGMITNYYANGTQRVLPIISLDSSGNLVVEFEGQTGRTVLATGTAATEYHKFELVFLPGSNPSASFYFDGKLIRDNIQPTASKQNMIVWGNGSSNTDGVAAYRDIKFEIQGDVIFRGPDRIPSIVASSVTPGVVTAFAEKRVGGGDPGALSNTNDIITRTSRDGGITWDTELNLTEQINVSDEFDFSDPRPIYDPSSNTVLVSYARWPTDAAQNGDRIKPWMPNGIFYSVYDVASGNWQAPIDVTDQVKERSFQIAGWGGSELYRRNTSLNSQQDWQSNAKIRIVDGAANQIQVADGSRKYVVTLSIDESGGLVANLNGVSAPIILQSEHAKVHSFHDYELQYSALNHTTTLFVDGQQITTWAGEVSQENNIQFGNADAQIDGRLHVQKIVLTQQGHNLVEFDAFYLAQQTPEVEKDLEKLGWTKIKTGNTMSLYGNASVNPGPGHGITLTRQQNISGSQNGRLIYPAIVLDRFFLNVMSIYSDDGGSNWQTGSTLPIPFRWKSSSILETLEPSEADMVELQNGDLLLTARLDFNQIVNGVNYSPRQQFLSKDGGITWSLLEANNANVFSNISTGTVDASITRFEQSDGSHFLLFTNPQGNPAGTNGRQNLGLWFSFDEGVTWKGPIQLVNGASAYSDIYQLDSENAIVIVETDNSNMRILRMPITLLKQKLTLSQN

[3] = tested on: Clostridium perfringens neuraminidase; type: biochemical; details: for rate of hydrolysis (time course): C. P. neuraminidase, 0.75 mM sialoside, 0-120 min, FIGS. 1 and 3 panel B; for rate of hydrolysis (time course) / Vmax: 37° C.; for Vmax: C. perfringens neuraminidase, sialoside as substrate, 20 min, Lineweaver-Burk; for Km: read-out: Michaelis Constant Km
C. P. neuraminidase = type: biochemical, Clostridium perfringens; details: substrate 25, Dixon plots, 37° C.

| SMILES | rate of hydrolysis (time course) [1] | rate of hydrolysis (time course) [2] | rate of hydrolysis (time course) [3] | Vmax [1] [O.D./mU] | Vmax [2] [O.D./mU] | Vmax [3] [O.D./mU] | Km [3] [µM] | pKi (C. P. neuraminidase) |
| --- | --- | --- | --- | --- | --- | --- | --- | --- |
| CC(=O)N[C@H]1[C@H]([C@H](O)[C@H](O)CO)O[C@@](O[C@H](C)[C@H]2O[C@@H]3OC(C)(C)O[C@@H]3[C@H]3OC(C)(C)O[C@H]32)(C(=O)O)C[C@@H]1O [Compound 19a, Sodium salt of 5-acetamido-3,5-dideoxy-D-glycero-D-galacto-nonulopyranosylonic acid (2-6)-1,2;3,4-di-O-isopropylidene-7-deoxy-α-D-glycero-D-galactoheptopyranose] | no effect on the hydrolysis | no effect on the hydrolysis | detrimental effect |  |  |  |  |  |
| CC(=O)NC1C(O)CC(OCC2OC(OCC[Si](C)(C)C)C(O)C(O)C2O)(C(=O)O)OC1C(O)C(O)CO (centres unmarked) [Compound 23a, αDNeuAc (2-6) βDGal-OCH2 CH2 Si (CH3)3, reference compound] | efficiently hydrolyzed | most preferred substrate | faster than the tg sialoside 16a | 0.7 | 2.2 | 0.88 | 650 |  |
| CC(=O)N[C@H]1[C@H]([C@H](O)[C@H](O)CO)O[C@@](O[C@@H](C)[C@H]2O[C@@H](OCC[Si](C)(C)C)[C@H](O)[C@@H](O)[C@H]2O)(C(=O)O)C[C@@H]1O [Compound 16b, Sodium salt of 5-acetamido-3,5-dideoxy-D-glycero-D-galacto-nonulopyranosylonate(2-6)-7-deoxy-α-L-glycero-D-galactoheptopyranosyl-OCH2 CH2 Si (CH3)3] | little hydrolysis |  | hydrolyzed very slowly | 0.05 | 0.37 | 0.22 | 3200 |  |
| CC(=O)NC1C(O)CC(SC(C)C2OC(O)C(O)C(O)C2O)(C(=O)O)OC1C(O)C(O)CO [Compound 22a, Sodium salt of 5-acetamido-3,5-dideoxy-D-glycero-D-galacto-nonulopyranosylonic acid (2-S-6) -7-deoxy-D-glycero-D-galactoheptopyranose] |  |  |  |  |  |  |  | 3.00 |
| CC(=O)N[C@H]1[C@H]([C@H](O)[C@H](O)CO)O[C@@](OC[C@H]2O[C@@H]3OC(C)(C)O[C@@H]3[C@H]3OC(C)(C)O[C@H]32)(C(=O)O)C[C@@H]1O [Compound 23b, reference compound] | more efficiently hydrolyzed | more efficiently hydrolyzed | more efficiently hydrolyzed | 0.73 | 4.5 | 1.70 | 1440 |  |
| CC(=O)N[C@H]1[C@H]([C@H](O)[C@H](O)CO)O[C@@](O[C@H](C)[C@H]2O[C@@H](OCC[Si](C)(C)C)[C@H](O)[C@@H](O)[C@H]2O)(C(=O)O)C[C@@H]1O [Compound 16a, Sodium salt of 5-acetamido-3,5-dideoxy-D-glycero-D-galacto-nonulopyranosylonate(2-6)-7-deoxy-β-D-glycero-D-galactoheptopyranosyl-OCH2 CH2 Si (CH3)3] | efficiently hydrolyzed | preferentially hydrolyzed |  | 0.91 | 1.42 | 0.90 | 2150 |  |
| CC(=O)N[C@H]1[C@H]([C@H](O)[C@H](O)CO)O[C@@](O[C@@H](C)[C@H]2O[C@@H]3OC(C)(C)O[C@@H]3[C@H]3OC(C)(C)O[C@H]32)(C(=O)O)C[C@@H]1O [Compound 19b, Sodium salt of 5-acetamido-3,5-dideoxy-D-glycero-D-galacto-nonulopyranosylonic acid (2-6)-1,2;3,4-di-O-isopropylidene-7-deoxy-α-D-glycero-D-galactoheptopyranose] |  | inactive | inactive |  |  |  |  |  |

Source: US5489675A, “Disaccharide sialidase substrates and inhibitors” (priority 1993, dated 1996)
